Legend:
[1] = test system: LN229 cells harboring the A72S mutation (PTPN11 A72S); assay: LN229 tumor xenograft model, SOS1 inhibitor - MEK inhibitor combination; assay type: in vivo, nude/nude mice; conditions: for tumor growth inhibition: LN229 tumors, day 28, single agent, MRTX0902 50 mg/kg twice daily, VS-6766 0.3 mg/kg twice daily Monday, Wednesday, Friday; for Average Tumor Volumes of LN229 Tumor Bearing Mice: p.o., MRTX0902 50 mg/kg BID, VS-6766 0.3 mg/kg BID MWF (Q2D), mean of 5 mice
Method: (§1) Immunocompromised nude/nude mice are inoculated in the right hind flank with LN229 cells harboring the A72S mutation. When tumor volumes reach approximately 150 mm3 in size, the mice are divided into four groups of 5 mice each. The first group is administered vehicle only. […] The fourth group is administered the single agent dose of the SOS1 inhibitor in combination with the single agent dose of the MEK inhibitor. The treatment period was 28 days. Tumor volumes are measured using a caliper every two—three days and tumor volumes are calculated by the formula: 0.5×(Length×Width)2.
[0153]20 nude/nude mice were inoculated in the right hind limb with 5×10^6 LN229 cells. When tumor volume reached ˜150 mm3 (Study Day 0), 5 mice in each of the four groups were administered p.o. daily for 28 days: vehicle only (0.5% MC (4000 cps)/0.2% Tween80 in water), 50 mg/kg BID of the SOS1 inhibitor (R)-2-methyl-3-(1-((4-methyl-7-morpholinopyrido[3,4-d]pyridazin-1-yl)amino)ethyl)benzonitrile (MRTX0902) (0.5% MC (4000 cps)/0.2% Tween80 in water), 0.3 mg/kg BID Q2D of MEK inhibitor VS-6766 (5% DMSO, 10% HPCD in water), or 50 mg/kg BID MRTX0902 and 0.3 mg/kg BID Q2D. Tumor volumes, measured at pre-specified days, for the five mice per group were averaged and are reported for LN229 cells in Table 1 and FIG. 1.

[2] = test system: NCI-H1435 cells harboring NF1 K615N mutation; assay: NCI-H1435 tumor xenograft model, SOS1 inhibitor - MEK inhibitor combination; assay type: in vivo, nude/nude mice; conditions: for tumor growth inhibition: NCI-H1435 tumors, day 27, single agent, MRTX0902 50 mg/kg twice daily, VS-6766 0.3 mg/kg twice daily Monday, Wednesday, Friday; for Average Tumor Volumes of NCI-H1435 Tumor Bearing Mice: p.o., MRTX0902 50 mg/kg BID, VS-6766 0.3 mg/kg BID MWF (Q2D), mean of 5 mice
Method: as §1, with “with NCI-H1435” for “with LN229”, “harboring NF1 K615N” for “harboring the A72S”, “administered a” for “administered the”, “with a” for “with the”, “was 27” for “was 28”
20 nude/nude mice were inoculated in the right hind limb with 5×10^6 NCI-H1435 cells. When tumor volume reached ˜150 mm3 (Study Day 0), 5 mice in each of the four groups were administered p.o. daily for 27 days: vehicle only (0.5% MC (4000 cps)/0.2% Tween80 in water), 50 mg/kg BID of the SOS1 inhibitor (R)-2-methyl-3-(1-((4-methyl-7-morpholinopyrido[3,4-d]pyridazin-1-yl)amino)ethyl)benzonitrile (MRTX0902) (0.5% MC (4000 cps)/0.2% Tween80 in water), 0.3 mg/kg BID Q2D of MEK inhibitor VS-6766 (5% DMSO, 10% HPCD in water), or 50 mg/kg BID MRTX0902 and 0.3 mg/kg BID Q2D VS-6766. Tumor volumes, measured at pre-specified days, for the five mice per group were averaged and are reported for NCI-H1435 cells in Table 2 and FIG. 2.

SMILES | tumor growth inhibition [1] | Average Tumor Volumes of LN229 Tumor Bearing Mice ([1]; Study Day 0 (start of dosing)) | Average Tumor Volumes of LN229 Tumor Bearing Mice ([1]; Study Day 4) | Average Tumor Volumes of LN229 Tumor Bearing Mice ([1]; Study Day 7) | Average Tumor Volumes of LN229 Tumor Bearing Mice ([1]; Study Day 12) | Average Tumor Volumes of LN229 Tumor Bearing Mice ([1]; Study Day 15) | Average Tumor Volumes of LN229 Tumor Bearing Mice ([1]; Study Day 18) | Average Tumor Volumes of LN229 Tumor Bearing Mice ([1]; Study Day 25) | Average Tumor Volumes of LN229 Tumor Bearing Mice ([1]; Study Day 28) | tumor growth inhibition [2] | Average Tumor Volumes of NCI-H1435 Tumor Bearing Mice ([2]; Study Day 0 (start of dosing)) | Average Tumor Volumes of NCI-H1435 Tumor Bearing Mice ([2]; Study Day 3) | Average Tumor Volumes of NCI-H1435 Tumor Bearing Mice ([2]; Study Day 6) | Average Tumor Volumes of NCI-H1435 Tumor Bearing Mice ([2]; Study Day 10) | Average Tumor Volumes of NCI-H1435 Tumor Bearing Mice ([2]; Study Day 13) | Average Tumor Volumes of NCI-H1435 Tumor Bearing Mice ([2]; Study Day 17) | Average Tumor Volumes of NCI-H1435 Tumor Bearing Mice ([2]; Study Day 20) | Average Tumor Volumes of NCI-H1435 Tumor Bearing Mice ([2]; Study Day 24) | Average Tumor Volumes of NCI-H1435 Tumor Bearing Mice ([2]; Study Day 27)
Cc1c(C#N)cccc1[C@@H](C)Nc1nnc(C)c2cnc(N3CCOCC3)cc12 [MRTX0902, (R)-2-methyl-3-(1-((4-methyl-7-morpholinopyrido[3,4-d]pyridazin-1-yl)amino)ethyl)benzonitrile] | 37.6% | 151 mm^3 | 174 mm^3 | 199 mm^3 | 248 mm^3 | 310 mm^3 | 374 mm^3 | 462 mm^3 | 525 mm^3 | 49.8% | 164 mm^3 | 241 mm^3 | 292 mm^3 | 333 mm^3 | 417 mm^3 | 437 mm^3 | 474 mm^3 | 583 mm^3 | 608 mm^3
CNS(=O)(=O)Nc1nccc(Cc2c(C)c3ccc(Oc4ncccn4)cc3oc2=O)c1F [VS-6766, 3-[[3-fluoro-2-(methylsulfamoylamino)pyridin-4-yl]methyl]-4-methyl-7-pyrimidin-2-yloxychromen-2-one] | 92.5% | 151 mm^3 | 143 mm^3 | 137 mm^3 | 120 mm^3 | 140 mm^3 | 186 mm^3 | 225 mm^3 | 196 mm^3 | 76.4% | 166 mm^3 | 254 mm^3 | 296 mm^3 | 307 mm^3 | 281 mm^3 | 286 mm^3 | 322 mm^3 | 349 mm^3 | 371 mm^3

— patent US20250186453A1, “COMBINATION THERAPIES COMPRISING A SOS1 INHIBITOR AND A MEK INHIBITOR” (Mirati Therapeutics, Inc., priority 2022, published 2025)
